Measured values from patent US20040171566A1, “Antisense modulation of p38 mitogen activated protein kinase expression” (priority 1999, published 2004).
In the oligonucleotide strings, read from the 5' end, every base follows the letter of its sugar. An asterisk marks phosphorothioate; unmarked linkages are phosphodiester. Other units and linkages are bracketed, terminal groups are in braces. A string of capitals states the bases alone. e = 2'-O-(2-methoxyethyl) (MOE); [5mC] = 5-methylcytosine; d = 2'-deoxy (DNA)

What was measured:
human p38β mRNA = experiment: Inhibition of human p38β mRNA expression in HUVEC cells, Northern blot; assay type: cell-based
Protocol: (§1) The human Jurkat T-cell line (American Type Culture Collection, Manassas, Va.) was maintained in RPMI 1640 growth media supplemented with 10% fetal bovine serum (FBS; Hyclone, Logan, Utah). HUVEC cells (Clonetics, San Diego, Calif.) were cultivated in endothelial basal media supplemented with 10% FBS (Hyclone, Logan, Utah).
HUVEC cells were allowed to reach 75% confluency prior to use. The cells were washed twice with warm (37° C.) OPTI-MEM™ (Life Technologies). The cells were incubated in the presence of the appropriate culture medium, without the growth factors added, and the oligonucleotide formulated in LIPOFECTIN7 (Life Technologies), a 1:1 (w/w) liposome formulation of the cationic lipid N-[1-(2,3-dioleyloxy)propyl]-n,n,n-trimethylammonium chloride (DOTMA), and dioleoyl phosphotidylethanolamine (DOPE) in membrane filtered water. HUVEC cells were treated with 100 nM oligonucleotide in 10 μg/ml LIPOFECTIN7. Treatment was for four hours.
(§2) Total mRNA was isolated using the RNEASY7 Mini Kit (Qiagen, Valencia, Calif.; similar kits from other manufacturers may also be used), separated on a 1% agarose gel, transferred to HYBOND™-N+ membrane (Amersham Pharmacia Biotech, Piscataway, N.J.), a positively charged nylon membrane, and probed. p38 MAPK probes were made using the Prime-A-Gene7 kit (Promega Corporation, Madison, Wis.), a random primer labeling kit, using mouse p38α or p38β cDNA as a template. A glyceraldehyde 3-phosphate dehydrogenase (G3PDH) probe was purchased from Clontech (Palo Alto, Calif.), Catalog Number 9805-1. The fragments were purified from low-melting temperature agarose, as described in Maniatis, T., et al., Molecular Cloning: A Laboratory Manual, 1989. The G3PDH probe was labeled with REDIVUE™ ^32P-dCTP (Amersham Pharmacia Biotech, Piscataway, N.J.) and Strip-EZ labelling kit (Ambion, Austin, Tex.). mRNA was quantitated by a PhosphoImager (Molecular Dynamics, Sunnyvale, Calif.).
Every oligonucleotide tested gave at least 50% inhibition.
Oligonucleotides 17893 (SEQ ID NO. 27), 17899 (SEQ ID NO:33), 17904 (SEQ ID NO. 38), and 17907 (SEQ ID NO. 41) were chosen for dose response studies. HUVEC cells were cultured and treated as described in Example 2 except that the oligonucleotide concentration was varied as shown in Table 6. The Lipofectin7/Oligo ratio was maintained at 3 μg Lipofectin7/100 nM oligo, per ml. mRNA was measured by Northern blot as described in Example 2.

human p38α mRNA = experiment: Inhibition of human p38α mRNA expression in Jurkat cells, Northern blot; assay type: cell-based; details: Jurkat cells electroporated with 10 μM oligonucleotide; Northern blot
Protocol: as §1
Jurkat cells were grown to approximately 75% confluency and resuspended in culture media at a density of 1×10^7 cells/ml. A total of 3.6×10^6 cells were employed for each treatment by combining 360 μl of cell suspension with oligonucleotide at the indicated concentrations to reach a final volume of 400 μl. Cells were then transferred to an electroporation cuvette and electroporated using an Electrocell Manipulator 600 instrument (Biotechnologies and Experimental Research, Inc.) employing 150 V, 1000 μF, at 13 Ω. Electroporated cells were then transferred to conical tubes containing 5 ml of culture media, mixed by inversion, and plated onto 10 cm culture dishes.
as §2
Jurkat cells were grown and treated as described above except the concentration of oligonucleotide was varied as indicated in Table 3. […] Maximum inhibition was approximately 70% with 16500 (SEQ ID NO 17).

[1] = 100 nM oligonucleotide in 10 μg/ml LIPOFECTIN, four hours, Northern blot

Sequence | % mRNA EXPRESSION (human p38β mRNA; [1]) | % mRNA Inhibition (human p38β mRNA; [1]) | % mRNA EXPRESSION (human p38α mRNA) | further results
ATGATGCGCTTCAGCTGGTC (chemistry not fully specified) [ISIS 17901] | 15% | 85% |  | 
CAGAGAGCCTCCTGGGAGGG (antisense e[5mC]*eA*eG*eA*eG*eA*dG*dC*dC*dT*dC*dC*dT*dG*eG*eG*eA*eG*eG*eG) [ISIS 16489] |  |  | 149% | 
GCCAGTGCCTCAGGTGCACT [ISIS 17902] | 49% | 51% |  | 
ACTGTTTGGTTGTAATGCAT (antisense; chemistry not fully specified) [ISIS 17900] | 40% | 60% |  | 
AAGACCGGGCCCGGAATTCC (antisense eA*eA*eG*eA*e[5mC]*e[5mC]*dG*dG*dG*dC*dC*dC*dG*dG*eA*eA*eT*eT*e[5mC]*e[5mC]) [ISIS 16486] |  |  | 212% | 
GGTCTCGGGCGACCTCTCCT (antisense eG*eG*eT*e[5mC]*eT*e[5mC]*dG*dG*dG*dC*dG*dA*dC*dC*eT*e[5mC]*eT*e[5mC]*e[5mC]*eT) [ISIS 16491] |  |  | 148% | 
GTGCTTCAGGTGCTTGAGCA (chemistry not fully specified) [ISIS 17895] | 25% | 75% |  | 
CTGCCGGTAGAACGTGGGCC (antisense e[5mC]*eT*eG*e[5mC]*e[5mC]*eG*dG*dT*dA*dG*dA*dA*dC*dG*eT*eG*eG*eG*e[5mC]*e[5mC]) [ISIS 16495] |  |  | 72% | % mRNA Inhibition (human p38α mRNA): 28%
CCTACACATGGCAAGCACAT (chemistry not fully specified) [ISIS 17907] | 8% | 92% |  | % mRNA EXPRESSION (human p38β mRNA; dose 10 nM): 37%; % mRNA Inhibition (human p38β mRNA; dose 10 nM): 63%; % mRNA EXPRESSION (human p38β mRNA; dose 25 nM): 22%; % mRNA Inhibition (human p38β mRNA; dose 25 nM): 78%; % mRNA EXPRESSION (human p38β mRNA; dose 50 nM): 18%; % mRNA Inhibition (human p38β mRNA; dose 50 nM): 72%; % mRNA EXPRESSION (human p38β mRNA; dose 100 nM): 18%; % mRNA Inhibition (human p38β mRNA; dose 100 nM): 72%
TTTAGGTCCCTGTGAATTAT (eT*eT*eT*eA*eG*eG*dT*dC*dC*dC*dT*dG*dT*dG*eA*eA*eT*eT*eA*eT; antisense) [ISIS 16497] |  |  | 104% | 
ACACATGTTTGTGCATGCAT (antisense; chemistry not fully specified) [ISIS 17906] | 22% | 78% |  | 
AGTGCACGCTCATCCACACG (chemistry not fully specified) [ISIS 17909] | 13% | 87% |  | 
CAGCCGCGGGACCAGCGGCG (antisense e[5mC]*eA*eG*e[5mC]*e[5mC]*eG*dC*dG*dG*dG*dA*dC*dC*dA*eG*e[5mC]*eG*eG*e[5mC]*eG) [ISIS 16492] |  |  | 125% | 
CCGAACAGACGGAGCCGTAT (chemistry not fully specified) [ISIS 17894] | 13% | 87% |  | 
GTGGAGGCCAGTCCCCGGGA [ISIS 16487] |  |  | 171% | 
TCCAGGCTGAGCAGCTCTAA (chemistry not fully specified) [ISIS 17908] | 17% | 83% |  | 
CGACATGTCCGGAGCAGAAT (chemistry not fully specified) [ISIS 17891] | 22% | 78% |  | 
